Positions of bridges follow the written chain, without caps; N, C: chain ends. Residues, ends and D or L forms follow the SMILES beside them. Chains are numbered I, II in the order given. *: point of attachment. Chenodeoxycholyl = C[C@H](CCC(=O)*)[C@H]1CC[C@H]2[C@@H]3[C@H](O)C[C@@H]4C[C@H](O)CC[C@]4(C)[C@H]3CC[C@]12C

The subject of this data set is JIMT-1 breast cancer cells. Nature of the data set: Cell cytotoxicity assay (PrestoBlue). Type of data set: cell-based. As for the experimental part:
50 mg of CDCA-C-SV40 monomers (or other steroid acid-peptide monomers) were resuspended in 200-500 μL of DMSO. 10 eq of N,N-Diisopropylethylamine (DIPEA) was added to the mixture and incubated in a thermomixer at 37° C. with agitation (1000 rpm) overnight, enabling dimerization of the monomers via their N-terminal cysteine thiol groups to produce (CDCA-C-SV40)2 or other dimers. The samples were then analyzed by UPLC-MS to evaluate dimer formation efficiency. Cell toxicity was evaluated via a Cell Toxicity assay (PrestoBlue™).
In a T75 flask of confluent JIMT-1 cells (at least 75%), the culture medium was removed, and 2 mL of trypsin was then added and incubated at 37° C. for about 5 minutes or until the cells detached. The trypsin was inactivated by adding 10 mL of culture medium, the cells were centrifuged at 950 rpm for 5 minutes at 4° C., viable cells were visualized with trypan blue and counted using a hematocytometer. Cells were then plated in a 96-well plate at 5000 cells/well and incubated at 37° C. for 24 hours. Trastuzumab-(CDCA-C-SV40)2 or T-DM1-(CDCA-C-SV40)2 was then added to the cells and incubated for 72 hours at 37° C. […] Fluorescence (excitation: 535-560 nm, emission: 590-615 nm) was measured. The cells were further incubated for another 30 minutes, and a second fluorescence reading was taken.

Take `CC(C)[C@H](NC(=O)[C@H](CCCCN)NC(=O)CNC(=O)[C@H](Cc1ccc(O)cc1)NC(=O)CNC(=O)[C@H](CO)NC(=O)[C@H](CSSC[C@H](NC(=O)CC[C@@H](C)[C@H]1CC[C@H]2[C@@H]3[C@H](O)C[C@@H]4C[C@H](O)CC[C@]4(C)[C@H]3CC[C@]12C)C(=O)N[C@@H](CO)C(=O)NCC(=O)N[C@@H](Cc1ccc(O)cc1)C(=O)NCC(=O)N[C@@H](CCCCN)C(=O)N[C@H](C(=O)N[C@@H](CO)C(=O)N[C@@H](CCCNC(=N)N)C(=O)N[C@@H](CCCNC(=N)N)C(=O)NCC(=O)NCC(=O)N[C@@H](Cc1c[nH]cn1)C(=O)N[C@@H](CCC(N)=O)C(=O)N[C@@H](CC(N)=O)C(=O)N[C@@H](CO)C(=O)N[C@@H](Cc1ccc(O)cc1)C(=O)N[C@@H](CCCCN)C(=O)N1CCC[C@H]1C(=O)N[C@@H](Cc1ccc(O)cc1)C(=O)O)C(C)C)NC(=O)CC[C@@H](C)[C@H]1CC[C@H]2[C@@H]3[C@H](O)C[C@@H]4C[C@H](O)CC[C@]4(C)[C@H]3CC[C@]12C)C(=O)N[C@@H](CO)C(=O)N[C@@H](CCCNC(=N)N)C(=O)N[C@@H](CCCNC(=N)N)C(=O)NCC(=O)NCC(=O)N[C@@H](Cc1c[nH]cn1)C(=O)N[C@@H](CCC(N)=O)C(=O)N[C@@H](CC(N)=O)C(=O)N[C@@H](CO)C(=O)N[C@@H](Cc1ccc(O)cc1)C(=O)N[C@@H](CCCCN)C(=O)N1CCC[C@H]1C(=O)N[C@@H](Cc1ccc(O)cc1)C(=O)O` [(CDCA-C-hnRNP D NLS)2] (I: Chenodeoxycholyl-CSGYGKVSRRGGHQNSYKPY-OH / II: Chenodeoxycholyl-CSGYGKVSRRGGHQNSYKPY-OH; disulfide I:1-II:1): the “cytotoxicity of dimerized version vs monomer” value is recorded as “enhancement of cytotoxicity”.

The values above are taken from patent publication US12233130B2, “Covalently-modified steroid acid-peptides having enhanced stability and/or biological activity” (DEFENCE THERAPEUTICS INC., priority 2022, dated 2025).
